Reference: article PMC6001238, “Iterative Chemical Engineering of Vancomycin Leads to Novel Vancomycin Analogs With a High in Vitro Therapeutic Index” (Frontiers in Microbiology, 2018)
Converted amounts (≈) assume the structure as drawn.

Legend:
[1] = test system: E. faecalis VSE 1; assay: MIC, broth microdilution, vancomycin-sensitive E. faecalis (VSE 1); type: cell-based, Enterococcus faecalis; settings: for MIC: Enterococcus faecalis VSE 1 (vancomycin-sensitive), read-out: MIC; for MIC-fold improvement vs. vancomycin: VSE 1, ratio of MIC of vancomycin and MIC of analogue
Method: (§1) The minimum inhibitory concentration (MIC) was determined using the broth microdilution method according to the antimicrobial susceptibility testing standards of the clinical and laboratory standards institute ([Clinical and Laboratory Standards Institute [CLSI], 2012]). Ultrapure water and non-inoculated broth were used as controls. In one case, a final concentration of 10 μM vancomycin was included with the vancomycin analog or control antibiotic.

[2] = test system: E. faecalis VRE 6; assay: MIC, broth microdilution, vancomycin-resistant E. faecalis VRE 6 (VanA); type: cell-based, Enterococcus faecalis; settings: for MIC: Enterococcus faecalis VRE 6 (vancomycin-resistant), read-out: MIC; for MIC-fold improvement vs. vancomycin: VRE 6, ratio of MIC of vancomycin and MIC of analogue
Method: as §1

[3] = test system: E. faecalis VRE 53; assay: MIC, broth microdilution, vancomycin-resistant E. faecalis VRE 53 (VanA); type: cell-based, Enterococcus faecalis; settings: for MIC: Enterococcus faecalis VRE 53 (vancomycin-resistant), read-out: MIC; for MIC-fold improvement vs. vancomycin: VRE 53, ratio of MIC of vancomycin and MIC of analogue
Method: as §1

[4] = test system: E. faecalis VRE 29; assay: MIC, broth microdilution, vancomycin-resistant E. faecalis VRE 29 (VanA); type: cell-based, Enterococcus faecalis; settings: for MIC: Enterococcus faecalis VRE 29 (vancomycin-resistant), read-out: MIC; for MIC-fold improvement vs. vancomycin: VRE 29, ratio of MIC of vancomycin and MIC of analogue
Method: as §1

[5] = test system: E. faecalis VRE 37; assay: MIC, broth microdilution, vancomycin-resistant E. faecalis VRE 37 (VanA); type: cell-based, Enterococcus faecalis; settings: for MIC: Enterococcus faecalis VRE 37 (vancomycin-resistant), read-out: MIC
Method: as §1

[6] = test system: Murine leukemia (L1210) cells; assay: Cytostatic activity, L1210 cell proliferation; type: cell-based; settings: mean ± SD of three experiments; highest concentration tested 250 µM; 2 days; read-out: Toxicity (IC50) L1210
Method: (§2) Murine leukemia (L1210), human T-lymphocyte (CEM) and the human cervix carcinoma (HeLa) cell line were suspended at 300,000–500,000 cells/mL of culture medium, and 100 μL of a cell suspension was added to 100 μL of an appropriate dilution of the test compounds in wells of 96-well microtiter plates. After incubation at 37°C for 2 (L1210), 3 (CEM), or 4 (HeLa) days, the cell number was determined using a Coulter counter. The IC50 was defined per cell type as the compound concentration required to inhibit cell proliferation by 50% compared to the negative control ([Glowacka et al., 2017]).

[7] = test system: human T-lymphocyte (CEM) cells; assay: Cytostatic activity, CEM cell proliferation; type: cell-based; settings: mean ± SD of three experiments; highest concentration tested 250 µM; 3 days; read-out: Toxicity (IC50) CEM
Method: as §2

[8] = test system: human cervix carcinoma (HeLa) cells; assay: Cytostatic activity, HeLa cell proliferation; type: cell-based; settings: mean ± SD of three experiments; highest concentration tested 250 µM; 4 days; read-out: Toxicity (IC50) HeLa
Method: as §2

[9] = test system: L1210, CEM and HeLa cell lines; assay: Cytostatic activity, average or summary over L1210, CEM and HeLa; type: cell-based; settings: average of L1210, CEM and HeLa; read-out: Toxicity (IC50) Average
Method: as §2

[10] = test system: S. aureus VSSA (ATCC 6538); assay: MIC, broth microdilution, vancomycin-sensitive S. aureus (VSSA/MSSA, ATCC 6538); type: cell-based, Staphylococcus aureus; settings: for MIC: Staphylococcus aureus VSSA, read-out: MIC; for MIC-fold improvement vs. vancomycin: VSSA, ratio of MIC of vancomycin and MIC of analogue
Method: as §1

[11] = test system: S. aureus VISA/HIP5827; assay: MIC, broth microdilution, vancomycin-intermediate S. aureus VISA HIP5827; type: cell-based, Staphylococcus aureus; settings: for MIC: Staphylococcus aureus VISA/HIP5827, read-out: MIC; for MIC-fold improvement vs. vancomycin: VISA/HIP5827, ratio of MIC of vancomycin and MIC of analogue
Method: as §1

[12] = test system: S. aureus VRSA; assay: MIC, broth microdilution, vancomycin-resistant S. aureus (VRSA); type: cell-based, Staphylococcus aureus; settings: for MIC: Staphylococcus aureus VRSA, read-out: MIC; for MIC-fold improvement vs. vancomycin: VRSA, ratio of MIC of vancomycin and MIC of analogue
Method: as §1

[13] = test system: MRSA KS2; assay: MIC, broth microdilution, MRSA KS2; type: cell-based, Staphylococcus aureus; settings: for MIC-fold improvement vs. vancomycin: MRSA KS2, ratio of MIC of vancomycin and MIC of analogue; for MIC: Staphylococcus aureus MRSA KS2, read-out: MIC
Method: as §1

[14] = test system: MRSA KS6; assay: MIC, broth microdilution, MRSA KS6; type: cell-based, Staphylococcus aureus; settings: for MIC-fold improvement vs. vancomycin: MRSA KS6, ratio of MIC of vancomycin and MIC of analogue; for MIC: Staphylococcus aureus MRSA KS6, read-out: MIC
Method: as §1

[15] = test system: MRSA KS89; assay: MIC, broth microdilution, MRSA KS89; type: cell-based, Staphylococcus aureus; settings: for MIC-fold improvement vs. vancomycin: MRSA KS8, ratio of MIC of vancomycin and MIC of analogue; for MIC: Staphylococcus aureus MRSA KS8, read-out: MIC
Method: as §1

[16] = test system: MRSA KS1; assay: MIC, broth microdilution, MRSA KS1; type: cell-based, Staphylococcus aureus; settings: for MIC-fold improvement vs. vancomycin: MRSA KS1, ratio of MIC of vancomycin and MIC of analogue; for MIC: Staphylococcus aureus MRSA KS1, read-out: MIC
Method: as §1

Row | SMILES | MIC [1] [µM] | MIC-fold improvement vs. vancomycin [1] | MIC [2] [µM] | MIC-fold improvement vs. vancomycin [2] | MIC [3] [µM] | MIC-fold improvement vs. vancomycin [3] | MIC [4] [µM] | MIC-fold improvement vs. vancomycin [4] | MIC [5] [µM] | IC50 [6] [µM] | IC50 [7] [µM] | IC50 [8] [µM] | IC50 [9] [µM] | MIC [10] [µM] | MIC-fold improvement vs. vancomycin [10] | MIC [11] [µM] | MIC-fold improvement vs. vancomycin [11] | MIC-fold improvement vs. vancomycin [13] | MIC [13] [µM] | MIC-fold improvement vs. vancomycin [14] | also measured
1 | CNC(CC(C)C)C(=O)NC1C(=O)NC(CC(N)=O)C(=O)NC2C(=O)NC3C(=O)NC(C(=O)NC(C(=O)NCC(=O)Nc4ccc(O)cc4)c4cc(O)cc(O)c4-c4cc3ccc4O)C(O)c3ccc(c(Cl)c3)Oc3cc2cc(c3OC2OC(CO)C(O)C(O)C2OC2CC(C)(N)C(O)C(C)O2)Oc2ccc(cc2Cl)C1O (centres unmarked) [Vanc-1] | 0.78 (≈ 1.25 µg/mL) | 2 | 25 (≈ 39.9 µg/mL) | 8 | 25 (≈ 39.9 µg/mL) | 16 | >50 | <8 | 50 (≈ 79.9 µg/mL) | > 250 | > 250 | 72 ± 10 | 191 | 0.78 (≈ 1.25 µg/mL) | 1 | 0.78 (≈ 1.25 µg/mL) | 8 | 1 | 0.78 (≈ 1.25 µg/mL) | 1 | MIC-fold improvement vs. vancomycin ([5]; VRE 37, ratio of MIC of vancomycin and MIC of analogue): 16; MIC [12]: 25 µM (≈ 39.9 µg/mL); MIC-fold improvement vs. vancomycin [12]: 4; MIC [14]: 0.78 µM (≈ 1.25 µg/mL); MIC-fold improvement vs. vancomycin [15]: 1; MIC [15]: 0.78 µM (≈ 1.25 µg/mL); MIC-fold improvement vs. vancomycin [16]: 1; MIC [16]: 0.78 µM (≈ 1.25 µg/mL)
2 | CN[C@H](CC(C)C)C(=O)N[C@H]1C(=O)N[C@@H](CC(N)=O)C(=O)N[C@H]2C(=O)N[C@H]3C(=O)N[C@H](C(=O)N[C@H](C(=O)NCC(=O)Nc4ccc(C)cc4Cl)c4cc(O)cc(O)c4-c4cc3ccc4O)[C@H](O)c3ccc(c(Cl)c3)Oc3cc2cc(c3O[C@@H]2O[C@H](CO)[C@@H](O)[C@H](O)[C@H]2O[C@H]2C[C@](C)(N)[C@H](O)[C@H](C)O2)Oc2ccc(cc2Cl)[C@H]1O [Vanc-2] | 0.39 (≈ 0.636 µg/mL) | 4 | 12.5 (≈ 20.4 µg/mL) | 16 | 25 (≈ 40.7 µg/mL) | 16 | 12.5 (≈ 20.4 µg/mL) | 32 | 25 (≈ 40.7 µg/mL) | > 250 | > 250 | 158 ± 84 | 219 | 0.78 (≈ 1.27 µg/mL) | 1 | 0.78 (≈ 1.27 µg/mL) | 8 | 2 | 0.39 (≈ 0.636 µg/mL) | 2 | MIC [12]: 12.5 µM (≈ 20.4 µg/mL); MIC-fold improvement vs. vancomycin [12]: 8; MIC [14]: 0.39 µM (≈ 0.636 µg/mL); MIC-fold improvement vs. vancomycin [15]: 2; MIC [15]: 0.39 µM (≈ 0.636 µg/mL); MIC-fold improvement vs. vancomycin [16]: 2; MIC [16]: 0.39 µM (≈ 0.636 µg/mL)
3 | CN[C@H](CC(C)C)C(=O)N[C@H]1C(=O)N[C@@H](CC(N)=O)C(=O)N[C@H]2C(=O)N[C@H]3C(=O)N[C@H](C(=O)N[C@H](C(=O)NCC(=O)Nc4ccccc4)c4cc(O)cc(O)c4-c4cc3ccc4O)[C@H](O)c3ccc(c(Cl)c3)Oc3cc2cc(c3O[C@@H]2O[C@H](CO)[C@@H](O)[C@H](O)[C@H]2O[C@H]2C[C@](C)(N)[C@H](O)[C@H](C)O2)Oc2ccc(cc2Cl)[C@H]1O [Vanc-3] | 0.78 (≈ 1.23 µg/mL) | 2 | 12.5 (≈ 19.8 µg/mL) | 16 | 25 (≈ 39.5 µg/mL) | 16 | 25 (≈ 39.5 µg/mL) | 16 | 25 (≈ 39.5 µg/mL) | > 250 | > 250 | > 250 | > 250 | 0.78 (≈ 1.23 µg/mL) | 1 | 0.78 (≈ 1.23 µg/mL) | 8 | 1 | 0.78 (≈ 1.23 µg/mL) | 1 | MIC [12]: 25 µM (≈ 39.5 µg/mL); MIC-fold improvement vs. vancomycin [12]: 4; MIC [14]: 0.78 µM (≈ 1.23 µg/mL); MIC-fold improvement vs. vancomycin [15]: 1; MIC [15]: 0.78 µM (≈ 1.23 µg/mL); MIC-fold improvement vs. vancomycin [16]: 1; MIC [16]: 0.78 µM (≈ 1.23 µg/mL)
4 | CN[C@H](CC(C)C)C(=O)N[C@H]1C(=O)N[C@@H](CC(N)=O)C(=O)N[C@H]2C(=O)N[C@H]3C(=O)N[C@H](C(=O)N[C@H](C(=O)NCCNC(=O)/C=C/c4ccc(OC)cc4)c4cc(O)cc(O)c4-c4cc3ccc4O)[C@H](O)c3ccc(c(Cl)c3)Oc3cc2cc(c3O[C@@H]2O[C@H](CO)[C@@H](O)[C@H](O)[C@H]2O[C@H]2C[C@](C)(N)[C@H](O)[C@H](C)O2)Oc2ccc(cc2Cl)[C@H]1O [Vanc-36] | 0.39 (≈ 0.644 µg/mL) | 4 | 1.56 (≈ 2.58 µg/mL) | 128 | 50 (≈ 82.6 µg/mL) | 8 | 12.5 (≈ 20.6 µg/mL) | 32 | 12.5 (≈ 20.6 µg/mL) | > 250 | > 250 | 89 ± 18 | 196 | 0.39 (≈ 0.644 µg/mL) | 2 | 0.39 (≈ 0.644 µg/mL) | 16 | 2 | 0.39 (≈ 0.644 µg/mL) | 2 | MIC [14]: 0.39 µM (≈ 0.644 µg/mL); MIC-fold improvement vs. vancomycin [15]: 1; MIC [15]: 0.78 µM (≈ 1.29 µg/mL); MIC-fold improvement vs. vancomycin [16]: 1; MIC [16]: 0.78 µM (≈ 1.29 µg/mL)
